{"source": "patent US20060127505A1", "about": "“Anti-inflammatory formulations” (priority 2002, published 2006)", "key": {"[1]": {"tested_on": "CD3+CD25+ cells in human PBMC", "assay": "T lymphocyte activation (CD3+CD25+) in PHA-stimulated PBMC of asthma patients (Example 6)", "format": "cell-based", "conditions": "PHA 50 μg/ml, 24 hours; 10^−7 M", "protocol": "Experiments were carried out to determine whether formulations based on the platelet activating factor receptor (PAFR) antagonist and free radical scavenger Ginkgolide B (GB) in combination with the antioxidant carotenoid astaxanthin (ASX) suppress T cell activation in the same dose range as two commonly-used antihistamines: cetirizine dihydrochloride (CTZ/Zyrtec) and azelastine ([…]). […] Results are reported as stimulation indices (SI) of % CD3+CD25+ cells in cultures treated with PHA alone to % CD3+CD25+ cells in each drug-supplemented culture. […] Subjects for this study included 12 patients diagnosed with atopic asthma, 7 male and 5 female, ranging in age from 21 to 40 years (mean 28±1.8 years). Disease duration ranged from 2 to 12 years. Atopy was defined on the basis of one or more positive skin prick tests to a range of 20 allergens. None of the patients had received systemic therapy for at least 6 weeks prior to blood collection. The mean serum IgE was 335 (170-480) IU/ml. Venous blood for each subject was collected in polyethylene tubes containing EDTA during a one hour morning time interval. PBMC were separated by Ficoll-paque (Pharmacia, Uppsala, Sweden) density gradient centrifugation. Cells were washed and suspended in RPMI 1640 medium (Gibco BRL, Gaithersburg, Md.) at density of 1×10^6 cells/ml. PBMC were stimulated with 50 μg/ml Phytohemaglutinin (PHA) (Sigma Immunopharmaceuticals, St. Lous Mo.), or PHA plus 10^-8-10^-5 M astaxanthin (Natural Alternatives International (NAI) Inc., San Marcos Calif.); or ginkgolide B 10^-8-10^-6 M (NAI San Marcos Calif.); or selected combinations of ASX plus GB. Comparison of ASX and GB effects on T cell activation were made with two other pharmacological agents with anti-asthmatic properties by treating cells with 10^-7-10^-4 M cetirizine dihydrochloride (Pfizer Pharmaceuticals, Norwich Conn.); or 10^-7-10^-4 M azalestine hydrochloride (Wallace Pharmaceuticals, Somerset N.J.), followed by evaluation of cultures for the same biological endpoints as ASX/GB-treated cells. Each reagent was added at the outset of a 24 hours culture period, followed by harvest of cellular fraction for immunophenotyping studies. […] Two-color Flow cytometry was conducted using a Coulter Epics XL automated flow cytometer (Coulter Scientific, Hialeah, Fla., USA). Isotypic controls for the monoclonal antibodies (mAb) used to detect antigens of interest were established for each cell preparation. Positive analysis regions for cells expressing specific surface markers were set against controls and specific binding of fluorophore-conjugated mAb was analyzed by cytofluorography according to standard methods recommended by the manufacturer. Lymphocyte subpopulations were identified by position on forward and side scatter plots and live-gated. Expression of each antigen was reported as percentage cells positive for a particular T cell subpopulation defined by expression of CD3 (T lymphocyte marker) plus CD25, plus or minus standard error. Statistical analysis was performed using an independent t-test. All statistical analyses were performed using the SPSS for Windows statistical package (Norusis/SPSS, Inc.). […] The capacity of formulations evaluated in this study to suppress immune activation was measured as a stimulation index (SI), defined as the ratio of […]."}, "[2]": {"tested_on": "ovalbumin(OA)-induced asthma in guinea pigs", "assay": "Ovalbumin-induced asthma in guinea pigs: inflammatory cells in BAL fluid", "format": "in vivo, guinea pig", "conditions": "for Eosinophils / Macrophages / Neutrophils: BAL fluid 24 hours after OV challenge", "protocol": "The effect combinations of vitamin C, astaxanthin, and ginkolide on asthma-associated disease parameters ovalbumin(OA)-induced asthma in guinea pigs was evaluated. Twenty-four hours following OA challenge, animals are sacrificed and numbers of inflammatory cells (eosinophils, neutrophils, macrophages) are measured in bronchoalveolar lavage (BAL) fluid; and cAMP and cGMP concentrations in the lung tissue. The experiments were carried out as follows. Male Hartley guinea pigs (250-350 g) were sensitized by intramuscular injections of 0.35 ml of a 5% (W/V) ovalbumin (OA)/saline solution into each thigh on days 1 and 4. Guinea pigs were ready for asthmatic challenge after 25 days of ovalbumin injection. Asthmatic challenge was carried out with ovalbumin aerosol, and bronchoalveolar lavage (BAL) was done 24 hours later. The numbers of eosinophils, neutrophils, and macrophages in the BAL fluid were counted. Twenty-four hours after the aerosol OA challenge, guinea pigs were killed by cervical dislocation and exsanguinated by severing the axillary arteries. Lungs were lavaged with 50 ml of DulBecco's phosphate-buffered saline (aliquots of 10 ml), which were aspirated after gentle chest massage. BAL fluid was centrifuged at 2200 rpm (1100×g) for 10 min, supernatant was aspirated, and pellets were resuspended in 5 ml 0.25% NaCl to lyse residual erythrocytes. This dispersion was centrifuged at 2200 rpm (1100×g) for 10 min, supernatant was aspirated, and pellets were resuspended 5 ml 0.9% NaCl. Total cell counts were done by hemocytometry using trypan blue stain. Slides were prepared on a Shandon Cytospin 2 (Pittsburgh, Pa.) at 300 rpm for 5 min, fixed and stained. Differential cell counts were done using standard morphologic criteria to classify cells as eosinophils, neutrophils, or macrophages, and the results were expressed in cell numbers. The dose-responsive effect of AX, EGb761, and vitamin C administered independently for suppression of asthma-associated parameters in allergen-induced, asthmatic guinea pigs was determined. Ibuprophen (IB) was used as the positive control. Concentration of inflammatory cells in bronchoalveolar lavage (BAL) fluid and levels of cAMP and cGMP in lung tissue were measured in guinea pigs 24 hours following challenge with OV. Data is reported as mean±SD of measurements taken in 6 animals per dosage cohort. *p<0.05 compared to corresponding values of OV antigen-challenged, drug-free control group. The dose-responsive effect of AX, EGb761, and vitamin C administered in combination for suppression of asthma-associated parameters in allergen-induced, asthmatic guinea pigs was determined. The combination of these three components was given each day for each guinea pig as a “cocktail”. Concentration of inflammatory cells in bronchoalveolar lavage (BAL) fluid and levels of cAMP and cGMP in lung tissue were measured in guinea pigs 24 hours following challenge with OV. Data is reported as mean±SD of measurements taken in 6 animals per dosage cohort. *p<0.05 compared to corresponding values of OV antigen-challenged, drug-free control group."}}, "note": "“Also recorded” adds a separate entry of the source. Marks after values point to notes of the source that are not given here."}
{"compound": "CC1=C(/C=C/C(C)=C/C=C/C(C)=C/C=C/C=C(C)/C=C/C=C(C)/C=C/C2=C(C)C(=O)[C@@H](O)CC2(C)C)C(C)(C)C[C@H](O)C1=O", "note": "[astaxanthin, 3,3′-dihydroxy-4,4′-diketo-B-carotene]", "values": [{"measurement": "SI (CD3+CD25+)", "setting": "[1]", "value": "0.89±0.06"}, {"measurement": "Eosinophils", "setting": "[2]; 5 mg/kg", "value": "5.0 ± 0.7", "unit": "cell × 10^6/animal"}, {"measurement": "Macrophages", "setting": "[2]; 5 mg/kg", "value": "9.6 ± 1.0", "unit": "cell × 10^6/animal"}, {"measurement": "Neutrophils", "setting": "[2]; 5 mg/kg", "value": "5.4 ± 0.8", "unit": "cell × 10^5/animal"}, {"measurement": "Eosinophils", "setting": "[2]; 10 mg/kg", "value": "4.6 ± 0.6", "unit": "cell × 10^6/animal"}, {"measurement": "Macrophages", "setting": "[2]; 10 mg/kg", "value": "8.0 ± 0.8", "unit": "cell × 10^6/animal"}, {"measurement": "Neutrophils", "setting": "[2]; 10 mg/kg", "value": "5.1 ± 0.6", "unit": "cell × 10^5/animal"}, {"measurement": "Eosinophils", "setting": "[2]; 30 mg/kg", "value": "3.1 ± 0.5* cell × 10^6/animal"}, {"measurement": "Macrophages", "setting": "[2]; 30 mg/kg", "value": "3.7 ± 0.7* cell × 10^6/animal"}, {"measurement": "Neutrophils", "setting": "[2]; 30 mg/kg", "value": "3.3 ± 0.8* cell × 10^5/animal"}, {"measurement": "Eosinophils", "setting": "[2]; 100 mg/kg", "value": "2.4 ± 0.6* cell × 10^6/animal"}, {"measurement": "Macrophages", "setting": "[2]; 100 mg/kg", "value": "2.70 ± 0.7* cell × 10^6/animal"}, {"measurement": "Neutrophils", "setting": "[2]; 100 mg/kg", "value": "2.4 ± 0.5* cell × 10^5/animal"}, {"measurement": "Eosinophils", "setting": "[2]; 200 mg/kg", "value": "2.3 ± 0.5* cell × 10^6/animal"}, {"measurement": "Macrophages", "setting": "[2]; 200 mg/kg", "value": "2.6 ± 0.5* cell × 10^6/animal"}, {"measurement": "Neutrophils", "setting": "[2]; 200 mg/kg", "value": "2.0 ± 0.4* cell × 10^5/animal"}, {"measurement": "protection against OV-induced asthma", "setting": "[2]; components used separately: 10 mg/kg AX, 200 mg/kg vit C, 10 mg/kg GB, listed as AX", "value": "failed to protect; also recorded: failed to reduce the severity of asthma"}]}
